Assay results taken from paper PMC12419465, “Photoresponsive molecular tweezers modulate Taspase 1 activity” (RSC Chemical Biology, 2025).
Like-named read-outs stand apart in the source and are kept apart here.

Tests used:
[1] = Photoisomerization: photostationary states by 1H NMR, switching cycles by UV-vis; assay type: physicochemical; conditions: for PSS E→Z, photostationary state: UV 365 nm; for PSS Z→E, photostationary state: green light 520 nm
Method: Tweezer constructs were synthesized as an E/Z mixture, with a strong preference for the thermodynamically stable E isomer. For photoisomerization, UV-vis spectra of TWAAP and TWAB (50 μM in water) were recorded in their initial state. The constructs were then isomerized to the Z isomer with UV light (λ = 365 nm, 1 min) and back to the E isomer with green light (λ = 520 nm, 5 min). Two light sources were used: UV LED HighPower-LED with 3 W of λ = 365 nm (LED Engin Inc., San Jose, California, US) and a LSC-G HighPower-LED with 3 W of λ = 520 nm (Cree Inc., Durham, North Carolina, US). UV-vis spectroscopy was routinely employed to analyze the tweezer constructs, serving as the method of choice to monitor configurational integrity after multiple switching cycles. More than 10 switching cycles were performed without any loss of configurational integrity. The UV-vis spectra were recorded with a JASCO V-650 double-beam spectrophotometer (JASCO).
The photophysical properties of AAP tweezers TWAAP0-4 as well as those of AZO tweezers TWAB1-2 were consistent with previous reports on these photoswitches. […] The two isomers are easily distinguished by the significant difference in their absorption bands (Fig. 2 and Fig. S4a, b). […] Irradiation with green light further increases the concentration of the E isomer, as confirmed by both UV/vis and NMR spectra. The switching process can be repeated for over 10 cycles without loss of configurational integrity or photodegradation of the tweezer. […] (Fig. 2 and Table S1).
Supplementary Table S1. Photostationary states (PSSE→Z and PSSZ→E) and half-life of Z isomers of
respectively. n.d., not determinable.
TW construct PSSE→Z [%] PSSZ→E [%] […]

[2] = target: T1, full-length, proteolytically inactive Taspase 1 (Homo sapiens, UniProt Q9H6P5, D233A/T234A); assay: Surface plasmon resonance on immobilized full-length, inactive Taspase 1; assay type: binding; conditions: for ka / kd: Table S3, n = 2
T1 sequence (Q9H6P5 1-420 D233A/T234A): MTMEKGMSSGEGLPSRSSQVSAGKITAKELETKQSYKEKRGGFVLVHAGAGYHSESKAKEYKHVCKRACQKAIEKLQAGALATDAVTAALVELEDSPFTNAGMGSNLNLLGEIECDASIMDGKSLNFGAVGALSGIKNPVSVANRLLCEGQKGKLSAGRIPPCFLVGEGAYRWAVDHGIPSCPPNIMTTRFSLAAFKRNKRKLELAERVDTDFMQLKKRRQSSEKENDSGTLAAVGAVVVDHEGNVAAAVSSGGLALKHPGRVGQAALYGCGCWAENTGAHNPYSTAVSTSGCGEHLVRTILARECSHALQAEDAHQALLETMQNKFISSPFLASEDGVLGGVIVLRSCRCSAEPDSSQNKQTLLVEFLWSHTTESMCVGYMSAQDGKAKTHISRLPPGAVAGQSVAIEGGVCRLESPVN
Method: SPR measurements were conducted as described.[9,10]
First, we utilized an established surface plasmon resonance (SPR) assay to evaluate the overall binding of our ligands to Taspase 1 (Fig. 3).[10,54] […] High affinities were observed, with KD values in the single micromolar range (Fig. 3, and Table S2).
Fig. 3 Photoswitchable tweezer constructs bind Taspase 1 with SPR binding affinities in the low micromolar range. […] Duplicate measurements were performed, with the respective curves shown in the same colour at different brightness levels (right). […] KD values (Table S2) were determined through kinetic evaluation by fitting the individual curves to a 1 : 1 binding model. Detailed SPR data are provided in the SI (Table S3). Composed with https://BioRender.com. […] No printed text gives the condition. In each entry the first value is the upper row and the second is the lower row.
Supplementary Table S3. Kinetic parameters of photoswitchable tweezer constructs as determined by SPR (see Fig. 3). Values were derived from fitted sensorgrams with a 1:1 two state binding model from n = 2 measurements for the indicated constructs. Analysis was performed using the Trace Drawer software 1.9.2 (TraceDrawer Software, Sweden). […]

[3] = E enriched isomer, Table S2, read-out: KD (E)
[4] = E isomer, ligand conc. 0.06 - 25 µM, Table S4, read-out: KD TW (SPR, full-length protein)
[5] = Z enriched isomer, Table S2, read-out: KD (Z)
[6] = Z isomer, ligand conc. 0.06 - 25 µM, Table S4, read-out: KD TW (SPR, full-length protein)

Structure (SMILES): Cc1nn(Cc2cn(CCOP(=O)(O)Oc3c4c(c(OP(=O)(O)O)c5c3C3CC5c5cc6c(cc53)C3CC6c5ccccc53)C3CC4c4cc5c(cc43)C3CC5c4ccccc43)nn2)c(C)c1N=Nc1ccc(-c2cn(CCOP(=O)(O)Oc3c4c(c(OP(=O)(O)O)c5c3C3CC5c5cc6c(cc53)C3CC6c5ccccc53)C3CC4c4cc5c(cc43)C3CC5c4ccccc43)nn2)cc1 [TWAAP2]
- PSS E→Z, photostationary state [1]: 94%
- PSS Z→E, photostationary state [1]: 77%
- Kd [2, 3]: 5.67 µM
- Kd [2, 4]: 5.7 µM
- Kd [2, 5]: 4.28 µM
- Kd [2, 6]: 4.3 µM
- ka ([2]; isomer E): 1170 ± 96.4 M⁻¹ s⁻¹
- kd ([2]; isomer E): 0.00501 ± 9.88e-07 s⁻¹
- ka ([2]; isomer Z): 750 ± 76.2 M⁻¹ s⁻¹
- kd ([2]; isomer Z): 0.00426 ± 1.03e-06 s⁻¹

Structure (SMILES): O=P(O)(O)Oc1c2c(c(OP(=O)(O)OCCn3cc(-c4ccc(N=Nc5ccc(-c6cn(CCOP(=O)(O)Oc7c8c(c(OP(=O)(O)O)c9c7C7CC9c9cc%10c(cc97)C7CC%10c9ccccc97)C7CC8c8cc9c(cc87)C7CC9c8ccccc87)nn6)cc5)cc4)nn3)c3c1C1CC3c3cc4c(cc31)C1CC4c3ccccc31)C1CC2c2cc3c(cc21)C1CC3c2ccccc21 [TWAB1]
- PSS E→Z, photostationary state [1]: 63%
- PSS Z→E, photostationary state [1]: 61%
- Kd [2, 3]: 9.32 µM
- Kd [2, 4]: 9.3 µM
- Kd [2, 5]: 9.2 µM
- ka ([2]; isomer E): 596 ± 116 M⁻¹ s⁻¹
- kd ([2]; isomer E): 0.000548 ± 2.4e-05 s⁻¹

Structure (SMILES): Cc1nn(-c2ccc(-n3cc(CCOP(=O)(O)Oc4c5c(c(OP(=O)(O)O)c6c4C4CC6c6cc7c(cc64)C4CC7c6ccccc64)C4CC5c5cc6c(cc54)C4CC6c5ccccc54)nn3)cc2)c(C)c1N=Nc1ccc(-n2cc(CCOP(=O)(O)Oc3c4c(c(OP(=O)(O)O)c5c3C3CC5c5cc6c(cc53)C3CC6c5ccccc53)C3CC4c4cc5c(cc43)C3CC5c4ccccc43)nn2)cc1 [TWAAP0]
- PSS E→Z, photostationary state [1]: 87%
- PSS Z→E, photostationary state [1]: 89%
- Kd [2, 3]: 0.71 µM
- SPR signal ([2]; E isomer): approximately 300 μRIU
- association rate constant (ka) ([2]; E isomer): 1.04 × 10^3 M^1 s^1
- dissociation rate constant (kd) ([2]; E isomer): 0.000743 s⁻¹
- Kd [2, 4]: 0.7 µM
- Kd [2, 5]: 2.87 µM
- SPR signal ([2]; Z isomer): approximately 300 μRIU
- association rate constant (ka) ([2]; Z isomer): 1.12 × 10^3 M^1 s^1
- dissociation rate constant (kd) ([2]; Z isomer): 0.00322 s⁻¹
- Kd [2, 6]: 2.9 µM
- ka ([2]; isomer E): 1120 ± 34 M⁻¹ s⁻¹
- kd ([2]; isomer E): 0.00322 ± 7.17e-07 s⁻¹
- ka ([2]; isomer Z): 1040 ± 20.5 M⁻¹ s⁻¹

Structure (SMILES): Cc1nn(-c2ccc(C#Cc3ccc(-c4cn(CCOP(=O)(O)Oc5c6c(c(OP(=O)(O)O)c7c5C5CC7c7cc8c(cc75)C5CC8c7ccccc75)C5CC6c6cc7c(cc65)C5CC7c6ccccc65)nn4)cc3)cc2)c(C)c1N=Nc1ccc(C#Cc2ccc(-c3cn(CCOP(=O)(O)Oc4c5c(c(OP(=O)(O)O)c6c4C4CC6c6cc7c(cc64)C4CC7c6ccccc64)C4CC5c5cc6c(cc54)C4CC6c5ccccc54)nn3)cc2)cc1 [TWAAP4]
- PSS E→Z, photostationary state [1]: 67%
- PSS Z→E, photostationary state [1]: 97%
- Kd [2, 3]: 2.9 µM
- Kd [2, 5]: 1.96 µM
- Kd [2, 6]: 2 µM
- ka ([2]; isomer E): 4690 ± 1260 M⁻¹ s⁻¹
- kd ([2]; isomer E): 0.00918 ± 4.22e-06 s⁻¹
- ka ([2]; isomer Z): 3340 ± 688 M⁻¹ s⁻¹
- kd ([2]; isomer Z): 0.00967 ± 4.04e-06 s⁻¹

Structure (SMILES): Cc1nn(-c2ccc(-c3cn(CCOP(=O)(O)Oc4c5c(c(OP(=O)(O)O)c6c4C4CC6c6cc7c(cc64)C4CC7c6ccccc64)C4CC5c5cc6c(cc54)C4CC6c5ccccc54)nn3)cc2)c(C)c1N=Nc1ccc(-c2ccc(-c3cn(CCOP(=O)(O)Oc4c5c(c(OP(=O)(O)O)c6c4C4CC6c6cc7c(cc64)C4CC7c6ccccc64)C4CC5c5cc6c(cc54)C4CC6c5ccccc54)nn3)cc2)cc1 [TWAAP3]
- PSS E→Z, photostationary state [1]: 84%
- PSS Z→E, photostationary state [1]: 92%
- Kd [2, 3]: 4.05 µM
- SPR signal ([2]; E isomer): approximately 120 μRIU
- association rate constant (ka) ([2]; E isomer): 3.81 × 10^3 M^1 s^1
- dissociation rate constant (kd) ([2]; E isomer): 1.53 × 10^−2 s^1
- Kd [2, 4]: 4.1 µM
- Kd [2, 5]: 2.67 µM
- SPR signal ([2]; Z isomer): about 500 μRIU
- association rate constant (ka) ([2]; Z isomer): 9.57 × 10^2 M^1 s^1
- dissociation rate constant (kd) ([2]; Z isomer): 2.56 × 10^−3 s^1
- Kd [2, 6]: 2.7 µM
- ka ([2]; isomer E): 957 ± 56.1 M⁻¹ s⁻¹
- kd ([2]; isomer E): 0.00256 ± 4.04e-06 s⁻¹
- ka ([2]; isomer Z): 3810 ± 2090 M⁻¹ s⁻¹
- kd ([2]; isomer Z): 0.0153 ± 2.5e-05 s⁻¹
